Assay results reported in patent US9428533B2, “Inhibitors of advanced glycation end products” (NephroGenex, Inc., priority 2006, dated 2016).

Experiments:
[1] = Redox metal ion binding affinity, visible spectroscopic titration (Cu2+); details: visible spectroscopy, physiological pH; read-out: Cu^2+ Kd
Excerpt: (§1) The AGE inhibition by these types of compounds is believed to occur when the compounds interfere with the role of the required redox metal ions in the oxidative breakdown of the Amadori intermediates to advanced glycation end products (“glycoxidation”). […] These spectral titrations usually involve adding varying amounts of compound to a fixed amount of metal ion in a suitable buffer having low metal ion affinity under physiological pH conditions. In cases of extreme affinity, binding constants were estimated in a competitive assay mode.
(§2) Binding affinity is measured as the dissociation constants Kd (units of concentration). All measurements were done by visible spectroscopy by monitoring the spectrum of the complex formed by each compound near its wavelength maximum, which depends on the metal ion being studied.

[2] = Redox metal ion binding affinity, visible spectroscopic titration (Fe2+); details: visible spectroscopy, 480 nm (430 nm for pyridoxamine); read-out: Fe^2+ Kd
Excerpt: as §1, §2

[3] = Redox metal ion binding affinity, visible spectroscopic titration (Fe3+); details: visible spectroscopy, 480 nm (430 nm for pyridoxamine); read-out: Fe^3+ Kd
Excerpt: as §1, §2

[4] = test system: RNase-Amadori; assay: Post-Amadori AGE/CML ELISA inhibition assay; format: biochemical; details: for IC50: 20 hours at 37° C.
Excerpt: Using a novel modification of the AGE Inhibition assay, we have determined the post-Amadori AGE inhibition potency for compounds of interest. The experiments were designed to determine the half-maximal inhibitory concentration of compounds (“IC50 values”) for inhibiting the conversion of Amadori intermediates to advanced glycation end products. The post Amadori AGE/CML ELISA assay has been developed to a 384 well format for rapidly testing potential inhibitors prepared from DMSO stocks. Assay signal to background ratios are high, at greater than 20:1. Results in this format for AGE inhibitors agree well with previous data, providing some measure of method validation, making the assay is robust and reliable. Compounds for testing were dissolved at 100 mM or their maximum concentration in 100% DMSO. […] A subset of compounds were not fully soluble in DMSO at concentrations as low as 10 mM. […] When necessary, the activity of compounds was subsequently confirmed in a more thorough repeat test against AGE formation from both RNase Amadori and BSA Amadori. Typically, from DMSO stocks, two stock plates were made. Each well contained 50 μL.
The stock plate #2 was then frozen at −20° C. during preparation. Later, stock plate #2 was removed from the freezer and allowed to thaw for 30 minutes. The compounds in the plate were then mixed repeatedly with a pipettor and diluted 5× into 0.01 N HCl in H2O.
Further dilutions were then carried out spanning two orders of magnitude of concentration. After the compounds were diluted, 10 ul of phosphate buffer was added to each well and mixed to neutralize the solution before protein addition. Next 15 μL of 0.333 mg/mL of RNase-Amadori in phosphate buffer was added from a stock of ribose-RNAse prepared at 10.7 mg/mL. These constitute the AGE reaction mixtures. All AGE reactions proceeded for 20 hours at 37° C. Reactions were then diluted 50 fold into coating buffer by 10× then 5× serial dilution. Coating proceeded at 37° C. for two hours. Final protein was 0.1 μg/well in 384 well plates (2 μg/mL). ELISA was carried out similarly to before using the primary antibody BST-3CK at 1:10000 dilution, and the secondary antibody labeled with DELPHIA Europium GAR at 1:4000 dilution.

[5] = test system: HepG2 cells; assay: Cell based toxicity assay (MTT); details: fixed concentration 1 mM
Excerpt: Hepatotoxicity is one of the major causes of drug failure in the clinic. HepG2 cells are human cells derived from a liver tumor, and express many of the proteins and detoxification pathways of normal hepatocytes, and so make a reasonable model for initial cellular toxicity testing of candidate compounds. The test is based on the active conversion of 3-[4,5-dimethylthiazol-2-yl]-2,5-dephenyltetrazolium bromide (MTT) by mitochondrial oxidation-reduction reactions into blue formazan crystals. Decreased crystal formation corresponds to decreased cell viability. Azide and chlorpromazine served as a positive controls
10×MTT stock solution (5 mg/ml MTT in 0.9% NaCl)
0.04 N HCl in isopropanol
Compound stocks: 100 mM in 100% DMSO
MTT working solution: diluting 10×MTT stock into culture medium.
Test article in cell culture medium; Final DMSO concentration on the cells varies with the compound concentration (Final concentration of solvents such as DMSO should be kept at or below 1%)
• 1. Aspirate culture medium from HepG2 cells. Replace culture medium with test article dissolved in culture medium. • 2. Incubate in 37° C., 5% CO2 incubator for 16-24 hours. • 3. Aspirate the medium from the cells; replace with an equal volume of 37° C. MTT working solution. • 4. Incubate for 3 hours. • 5. Replace MTT solution with an equal volume of acidified isopropanol. • 6. […] Read the absorbance of the solution at 570 nm. […]

[6] = test system: male mice; details: mouse, in vivo, po
Method: A seven day repeat oral gavage study was carried out in male mice in order to detect any obvious signs of clinical toxicity upon administration of BST-605. For comparison, two groups were dosed with BST-4997 and BST-146 (acetyl ester of BST-4997 that is rapidly hydrolyzed to parent BST-4997). Dosing was done daily at 10, 30 and 100 mg/kg/day, and blood draws were taken at the end of study at 1, 2, 4 and 8 h post-dosing.

[7] = In vivo plasma concentration and metabolites (HPLC fluorescence, LC-MS/MS); details: for metabolites in plasma: mice plasma
Method: The plasma drawn from the mice in the above MTD study was examined by an HPLC fluorescence method for the presence of parent drug at different times as well as for the possible presence of metabolites. […] An HPLC fluorescence method was developed to assay for parent drugs and possible metabolites of each drug. The HPLC method was further adapted for LC-MS/MS study by changing from phosphoric acid to volatile 20 mM ammonium acetate.
Possible structures for the metabolites include the following: […]

[8] = test system: STZ rats; assay: Tissue staining for carboxymethyllysine (CML) AGEs in nerve vasculature; format: in vivo; details: compared to diabetic controls
Excerpt: This was done by quantitative measurements of tissue staining for carboxymethyllysine (CML) AGEs, using anti-CML antibodies.

[9] = test system: streptozotocin (STZ)-diabetic rats; assay: Efficacy study in STZ rat model of diabetic neuropathy (nerve conduction velocity); format: in vivo
Method: The STZ rat model has been described previously in WO 2004/019889. Our aim was to ascertain whether BST-605 treatment could correct nerve dysfunction in streptozotocin (STZ)-diabetic rats. Animals were made diabetic for 6 weeks, following which they were treated (n=6) for 2 weeks with BST-605 given in the drinking water at concentrations adjusted to correspond to doses of 0.22, 0.67 and 2.0 mg/kg/day. They were compared to control non-diabetic rats (n=10).
Motor NCV was tested between the sciatic notch and knee for the nerve branch to tibialis anterior muscle, as described in Cameron et al., Q. J. Exp. Physiol. 74:917-926 (1989); and Cameron et al, Exp. Neurol. 92:757-761 (1986).
Saphenous sensory NCV was measured between the groin and ankle.

[10] = Drug exposure in plasma of STZ rats at sacrifice; format: in vivo; details: lowest two doses
Method: A determination of drug exposure was also made from plasma collected from STZ rats at sacrifice that were dosed at the lowest two doses. […] The detection of parent drugs and metabolites in the STZ rat, as in the mice plasma, confirms that sufficient exposure to the drug occurred in the studies so as to make the toxicity findings and in vivo efficacy reflective of drug administration.

[11] = STZ rats, 2 weeks in drinking water, 0.22, 0.67 and 2.0 mg/kg/day

SMILES	Kd [1] [µM]	Kd [2] [µM]	Kd [3] [µM]	Potency Relative to BST-4997 [4]	IC50 [4] [µM]	acute toxicity in HepG2 cell viability (MTT) [5]	clinical toxicity in MTD study [6]	metabolites in plasma [7]	AGE (CML) staining in the nerve vasculature [8]	potency over BST-4997 [4] [fold]	potency over pyridoxamine [4] [fold]	plasma concentration of parent drug versus dose ([7]; mice, plasma 1, 2, 4 and 8 h post-dosing, 10, 30 and 100 mg/kg/day)	diabetic complications in STZ rat model ([9]; STZ rat model)	restoration of nerve conduction velocity in motor (sciatic nerve) neurons [9, 11]	restoration of nerve conduction velocity in sensory (saphenous) neurons [9, 11]	drug exposure in plasma [10]
Cc1ncc(CO)c(-c2ncc[nH]2)c1O [BST-4997, reference compound]	1.13	690	610	(1)	600	some evidence of toxicity	significant toxicity at and above 30 mg/kg/day	oxidized and/or undergone glucuronidation	significant decrease in AGE staining	–	–	–	–	–	–	–
Cc1ncc(CO)c(CN)c1O [Pyridoxamine, pyridoxamine, reference compound]	–	–	–	–	5000	–	–	–	–	–	–	–	–	–	–	–
Cc1ncc(CN2CCN(C)CC2)c(-c2ncc[nH]2)c1O [BST-605]	0.13	720	520	6	100	no acute toxicity	no adverse clinical signs or gross examination findings	oxidized and/or undergone glucuronidation	–	6	50	proportional to dose	ameliorates diabetic complications	efficacy at very low concentrations	efficacy at very low concentrations	Drug exposure was observed and measured
